Values joined by “and” are separate entries in the source; they are usually repeats but may differ in a detail not shown here. Equal entries are not always repeated.
Tested on: P. falciparum 3D7
Assay: Malaria SYBR green I based fluorescence assay, dose response, 3D7
Type: cell-based
Conditions: Plasmodium falciparum, blood stage culture, 72 hours, mean (SD), 1 to 3 biological replicates
Procedure: (§1) The BRDi compounds had modest activity against all three strains (Table 2 ). […]
(§2) Shield1. Parasites were propagated in human red blood cells (blood group 0+) obtained from the Bavarian Red Cross service (BRK) and cultivated under standard conditions in RPMI 1640 (ThermoFisher) supplemented with 0.5% Albumax
(§3) (ThermoFisher), 20 µg/ml Gentamycin, 25 mM Hepes (pH 7.3), and 0.02% hypoxanthine in an atmosphere of 1% O2, 5% CO2, 94% N2.
(§4) Malaria SYBR green I based fluorescence assay
(§5) SYBR Green I based fluorescence assays to determine dose-response curves were performed essentially as described previously (Leidenberger et al., 2017). Briefly, parasite cultures were diluted to 1% ring stage parasitemia and cultivated at 2.5% haematocrit in 96 well plates in the presence of serial half-log dilutions of the compounds ranging from 100 µM to 10 nM or DMSO (dimethyl sulfoxide) corresponding to the highest concentration (0.1%). Chloroquine (C6628, Sigma-Aldrich) was used as control that was not expected to target PfBDP1 and was titrated from 5 µM to 1.6 nM. After 72 hours, cultures were lysed in lysis buffer (20 mM Tris-HCl, 5 mM EDTA, 0.008% saponin (Sigma-Aldrich), 0.08% Triton X (Sigma-Aldrich), 1:10,000 SYBR Green I dye (Invitrogen)) and fluorescence was measured in a Fluoroskan Ascent FL reader (excitation: 485 nm, emission: 530 nm). […]

Structure (SMILES)	EC50 [µM]
Cc1cc(C(N)=O)cc(C)c1-c1[nH]c(C)c2c1CCCCC2=O [RMM25, 3,5-Dimethyl-4-(3-methyl-4-oxo-2,4,5,6,7,8-hexahydrocyclohepta[c]pyrrol-1-yl)benzamide]	19

Molecular target: PfBDP1-BRD (Plasmodium falciparum, UniProt Q8IJ72)
Sequence (Q8IJ72 entry or part of it): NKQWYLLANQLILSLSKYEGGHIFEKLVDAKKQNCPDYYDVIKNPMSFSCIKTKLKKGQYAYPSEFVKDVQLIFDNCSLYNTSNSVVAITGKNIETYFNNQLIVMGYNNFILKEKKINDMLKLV
Assay: Isothermal titration calorimetry (ITC) with PfBDP1-BRD
Type: binding
Conditions: 25 °C, PBS pH 7.4, read-out: K D
Procedure: and incubated at 37 °C and 180 rpm until an OD600 of ~2.5. The culture was cooled to 18 °C, induced with 0.2 mM IPTG, and incubated for 16 hours overnight. Cells were harvested by centrifugation (Beckman Coulter Avanti J-26 XP, Rotor: JLA 8.100 Rotor) at 5000 x g for 15 min at 4 °C.
The cell pellet was resuspended in PBS (1:3 w/v). The suspension was lysed by sonication (Branson Digital Sonifier 250; 15 min, 3 sec pulse, 10 sec pause, amplitude 70%) at 4 °C. Insoluble debris was removed by centrifugation (Beckmann Coulter Avanti-J30 I, Rotor: 30.50Ti) at 80,000 x g for 45 min at 4 °C. The lysate was then sterile-filtered (0.45 µm) and purified by […] affinity chromatography. The protein was cleaved using either PreScission Protease (PfBDP1-BRD-construct) or TEV Protease (PvBDP1-BRD-construct) separating the bromodomain from the fusion protein. Further separation of the cleaved GST tag and any remaining GST fusion protein was achieved by an additional round of GST affinity chromatography.
Specifically, we used Glutathione Sepharose High Performance (HP) resin (Cytiva, 17-5279-01). A 25 mL batch of resin was self-packed into a column, equilibrated with PBS, and used to purify GST-tagged proteins. The cleaved bromodomain, which […]
Following this step, the bromodomain protein was further purified by size exclusion chromatography using a HiLoad 26/600 Superdex 75 pg column (GE Healthcare).
Isothermal Titration Calorimetry (ITC)
Affinity was measured using a MicroCal VP-ITC microcalorimeter (Malvern Instruments). Measurements were performed at 25 °C with the ligand (0.04 mM) in PBS (Phosphate buffer saline; 137 mM NaCl, 10 mM phosphate, 2.7 mM KCl; pH 7.4) buffer present in the cell and the protein (0.4 mM) injected via a stirred syringe (351 revolutions per minute) in 5 min intervals (1 injection of 6 µL and 20 injections of 13.5 µL). Solutions were degassed prior to measurements. The first injection was discarded to account for any potential diffusion during equilibration. Automated baseline correction and peak integration were conducted using NITPIC[1,2]. Analysis, fitting, and thermodynamic calculations were performed using a binary interaction model in SEDPHAT[3], and plots were generated using GUSSI[4]. Confidence intervals were calculated using the “Automatic Confidence Interval Search with Projection” method in SEDPHAT. During the confidence level search, the confidence level was set to 0.99, and Simplex optimization was applied prior to Marquardt-Levenberg at each step. Error Surface Projection was performed by alternating between Simplex and Marquardt-Levenberg algorithms until convergence was achieved.
Supporting Table S1. Amino acid sequences of proteins used in this […]
PfBDP1-BRD Construct (Uniprot: Q8IJ72; Residues: 333-456)
The construct includes an N-terminal GST-tag followed by a Prescission protease cleavage site. After cleavage, the purified protein retains an additional […] sequence at […]
the N-terminus, which originates from the vector's multiple cloning site. […]

Structure (SMILES)	Kd
Cc1[nH]c(-c2ccccc2Cl)c2c1C(=O)CCCC2 [RMM1]	5.8 µM and 5.81 µM
Cc1ccccc1-c1[nH]c(C)c2c1CCCCC2=O [RMM2]	3.9 µM and 3.94 µM
Cc1ccc(NS(C)(=O)=O)cc1-c1[nH]c(C)c2c1CCCCC2=O [RMM20]	8.17 µM
Cc1[nH]c(-c2ccc(S(N)(=O)=O)cc2)c2c1C(=O)CCCC2 [RMM19]	6.39 µM
Cc1[nH]c(-c2ccc(C#N)cc2)c2c1C(=O)CCCC2 [RMM18]	4.54 µM
Cc1[nH]c(-c2cccc(NS(C)(=O)=O)c2C)c2c1C(=O)CCCC2 [RMM21, N-(2-Methyl-3-(3-methyl-4-oxo-2,4,5,6,7,8-hexahydrocyclohepta[c]pyrrol-1-yl)phenyl)methanesulfonamide]	2.76 µM
CNC(=O)c1ccc(-c2[nH]c(C)c3c2CCCCC3=O)cc1 [RMM16]	5.14 µM
Cc1[nH]c(-c2ccc(C(N)=O)cc2)c2c1C(=O)CCCC2 [RMM15]	4.49 µM
Cc1[nH]c(-c2ccc(C(=O)N(C)C)cc2)c2c1C(=O)CCCC2 [RMM17]	42.4 µM
Cc1[nH]c(-c2ccccc2C(F)(F)F)c2c1C(=O)CCCC2 [RMM4]	2.9 µM and 2.94 µM
COc1ccccc1-c1[nH]c(C)c2c1CCCCC2=O [RMM5]	7.13 µM
Cc1cc(C#N)cc(C)c1-c1[nH]c(C)c2c1CCCCC2=O [RMM24, 3,5-dimethyl-4-(3-methyl-4-oxo-2,4,5,6,7,8-hexahydrocyclohepta[c]pyrrol-1-yl)benzonitrile]	1.22 µM
Cc1cc(C#N)ccc1-c1[nH]c(C)c2c1CCCCC2=O [RMM22, 3-Methyl-4-(3-methyl-4-oxo-2,4,5,6,7,8-hexahydrocyclohepta[c]pyrrol-1-yl)benzonitrile]	2.34 µM
CCc1ccccc1-c1[nH]c(C)c2c1CCCCC2=O [RMM3]	9.17 µM
Cc1cc(C(N)=O)cc(C)c1-c1[nH]c(C)c2c1CCCCC2=O [RMM25, 3,5-Dimethyl-4-(3-methyl-4-oxo-2,4,5,6,7,8-hexahydrocyclohepta[c]pyrrol-1-yl)benzamide]	0.896 µM

The next lines start with the values.

Kd	Structure (SMILES)
7.45 µM	Cc1[nH]c(-c2cccc(C(N)=O)c2)c2c1C(=O)CCCC2 [MPM8]
8.03 µM	Cc1[nH]c(-c2cccc(N(C)C)c2)c2c1C(=O)CCCC2 [RMM9, 1-(3-(dimethylamino)phenyl)-3-methyl-5,6,7,8-tetrahydrocyclohepta[c]pyrrol-4(2H)-one]
10 µM and 10.4 µM	Cc1[nH]c(-c2ccccc2)c2c1C(=O)CCCC2 [MPM3, 3-Methyl-1-phenyl-5,6,7,8-tetrahydrocyclohepta[c]pyrrol-4(2H)-one]
9.16 µM	CNc1cccc(-c2[nH]c(C)c3c2CCCCC3=O)c1 [RMM8, 3-Methyl-1-(3-(methylamino)phenyl)-5,6,7,8-tetrahydrocyclohepta[c]pyrrol-4(2H)-one]
16.9 µM	Cc1[nH]c(-c2cccc([N+](=O)[O-])c2)c2c1C(=O)CCCC2 [RMM7, 3-Methyl-1-(3-nitrophenyl)-5,6,7,8-tetrahydrocyclohepta[c]pyrrol-4(2H)-one]
6.2 µM and 6.22 µM	Cc1cccc(-c2[nH]c(C)c3c2CCCCC3=O)c1 [RMM6, 3-Methyl-1-(m-tolyl)-5,6,7,8-tetrahydrocyclohepta[c]pyrrol-4(2H)-one]
6.96 µM	CC(=O)Nc1cccc(-c2[nH]c(C)c3c2CCCCC3=O)c1 [RMM10]
4.9 µM and 4.93 µM	Cc1[nH]c(-c2cccc(S(N)(=O)=O)c2)c2c1C(=O)CCCC2 [RMM13]
4.7 µM	Cc1[nH]c(-c2cccc(NS(C)(=O)=O)c2)c2c1C(=O)CCCC2 [RMM11]
11.7 µM	Cc1ccc(-c2[nH]c(C)c3c2CCCCC3=O)cc1 [RMM14]
6.7 µM and 6.74 µM	Cc1[nH]c(-c2cccc(N)c2)c2c1C(=O)CCCC2 [MPM2]

Same assay, conditions: K D, 25 °C, PBS pH 7.4

Structure (SMILES)	Kd [µM]
Cc1[nH]c(-c2cc(N)ccc2Cl)c2c1C(=O)CCCC2 [MPM6, reference compound]	4.53

Tested on: P. falciparum K1 (multidrug resistant)
Assay: Malaria SYBR green I based fluorescence assay, dose response, K1
Type: cell-based
Conditions: Plasmodium falciparum, K1, 72 h, read-out: EC50 K1
Procedure: as §1
resistant strain K1, MRA-159, contributed by Dennis E. Kyle. […]
as §2, §3, §4, §5

Structure (SMILES)	EC50 [µM]
Cc1cc(C(N)=O)cc(C)c1-c1[nH]c(C)c2c1CCCCC2=O [RMM25, 3,5-Dimethyl-4-(3-methyl-4-oxo-2,4,5,6,7,8-hexahydrocyclohepta[c]pyrrol-1-yl)benzamide]	7.35

Tested on: 3D7::PfBDP1HADD parasites
Assay: Dose-response assay in conditional PfBDP1 knockdown parasites
Type: cell-based, Plasmodium falciparum
Conditions: 10 nM Shld1 compared to 500 nM Shld1, 72 h
From the text: To validate whether the compounds indeed target the BRD of PfBDP1, we utilized a conditional KD system to modulate the expression levels of PfBDP1 in situ.^[ [15] ^] In the 3D7::PfBDP1HADD line, PfBDP1 is fused at its C‐terminus to a ligand‐regulatable FKBP destabilization domain (DD) that targets the fusion protein for proteasomal degradation but can be stabilized by the Shield1 ligand, and 3xHA epitope tags for detection ^11. […] In contrast, the EC50 of chloroquine was unchanged.
A) Western Blot analysis of 3D7::PfBDP1HADD parasites cultivated in the presence of Shield1 (Shld) in concentrations ranging from 0 to 500 nM over 72 h in duplicates. PfBDP1HADD was detected by anti‐HA antibodies. Histone 3 (H3) was probed as a loading control. […] Growth was determined relative to DMSO controls for each condition after 72 h of culture. N = 4 replicates. […] Binding of PfBDP1HA to target loci was calculated as enrichment relative to histone H3 ChIP performed in parallel. Shown are individual values and median of one representative experiment with technical duplicates. Paired t‐test, p = 0.0015. […]
resistant strain K1, MRA-159, contributed by Dennis E. Kyle. The NF54::PfBDP1HA parasite line was generated by transfection of NF54 parasites with the plasmid pSLI_PfBDP1_3xHA and selection linked integration of the construct in the presence of G418[21]. […]
as §4
SYBR Green I based fluorescence assays to determine dose-response curves were performed essentially as described previously (Leidenberger et al., 2017). […] After 72 hours, cultures were lysed in lysis buffer (20 mM Tris-HCl, 5 mM EDTA, 0.008% saponin (Sigma-Aldrich), 0.08% Triton X (Sigma-Aldrich), 1:10,000 SYBR Green I dye (Invitrogen)) and fluorescence was measured in a Fluoroskan Ascent FL reader (excitation: 485 nm, emission: 530 nm). […]

Structure (SMILES)	change of sensitivity (dose-response, EC50) under partial PfBDP1 knockdown
CCN(CC)CCCC(C)Nc1ccnc2cc(Cl)ccc12 (centres unmarked) [chloroquine, Chloroquine, reference compound]	unchanged
Cc1cc(C(N)=O)cc(C)c1-c1[nH]c(C)c2c1CCCCC2=O [RMM25, 3,5-Dimethyl-4-(3-methyl-4-oxo-2,4,5,6,7,8-hexahydrocyclohepta[c]pyrrol-1-yl)benzamide]	moderately increased sensitivity

Tested on: P. falciparum NF54
Assay: Malaria SYBR green I based fluorescence assay, dose response, NF54
Type: cell-based
Conditions: Plasmodium falciparum, blood stage culture, 72 hours, mean (SD), 1 to 3 biological replicates
Procedure: as §1, §2, §3, §4, §5

Structure (SMILES)	EC50 [µM]
Cc1cc(C(N)=O)cc(C)c1-c1[nH]c(C)c2c1CCCCC2=O [RMM25, 3,5-Dimethyl-4-(3-methyl-4-oxo-2,4,5,6,7,8-hexahydrocyclohepta[c]pyrrol-1-yl)benzamide]	12.2

Reference: paper PMC12132910, “A Novel Inhibitor against the Bromodomain Protein 1 of the Malaria Pathogen Plasmodium Falciparum” (Chemmedchem, 2025)
